Assay results reported in patent publication US5792742A, “Fibrin-binding peptide fragments of fibronectin” (New York University, priority 1994, dated 1998).

Tests used:
fibrinogen = experiment: Binding of eluted 11 kDa fragment to fibrinogen-SEPHAROSE column; conditions: 37° C.; ethylene glycol eluted material
fibrin [1] = experiment: Reversibility (displacement) of 125I-11 kDa FBP binding to fibrin; conditions: 2,000 nM unlabeled peptide (22.2 molar excess)
Description: Detachable microtiter wells previously coated with 15 ng of fibrin were incubated with 100 ng/0.1 ml FBB (90 nM) of ^125 I-11 kDa for 1 hour at 22° C. The unbound radiolabeled protein was removed by extensive washing with FBB containing 0.1% Tween 20. […] The iodinated 11 kDa that remained bound to the removable wells was determined by quantitating the radioactivity attached to the individual wells in a gamma counter. Results were expressed as percentage of control wells incubated with buffer alone.

fibrin [2] = experiment: Elution of 11 kDa fragment from fibrin-SEPHAROSE with various agents (Table III); format: binding, bovine; conditions: rotated in the cold overnight
Description: Since complete recovery of fibrin-binding activity was desired for use of the molecule in clinical application, various buffers were tested in an attempt to optimize recovery of the peptide while retaining maximal biological activity.

fibrin [3] = experiment: Direct binding ELISA on fibrin-coated microtiter plates
Description: The preparation of fibrin coated microtiter plates was adapted from a method described by Christman et al., Biochim. Biophys. Acta. […] Microtiter (Immulon) plates were coated with fibrinogen at a concentration of 50-1000 ng/well/0.1 ml of Tris buffered saline (TBS). The plates were dried for 24 hours at 37° C. and 0.1 ml of thrombin (20 NIH units/100 ml) containing TRASYLOL™ (aprotinin) (400 K.I units/100 ml) in TBS was added to each well and the plates incubated for 2 hours at 37° C. Each well is washed one time with PBS and the plates are blocked for 1.5 hours with 1% BSA in TBS to prevent non-specific binding. A constant concentration of fibronectin and the 11 kDa fibrin-binding polypeptide (500 ng/0.1 ml) in 50 mM Tris-HCl, 0.1M NaCl, pH 7.6 (FBB) were incubated separately with fibrin coated microtiter wells (50-1000 ng) for 1 hr at room temperature (23° C.).
The wells were washed three times with FBB containing 0.05% Tween 20 (FBBT) and incubated for 1 hour with 0.05 ml of the a polyclonal anti-fibronectinantiserum (Calbiochem) or the purified IgG fraction of anti-11 kDa rabbit antisera, respectively, at a concentration of 1 μg/ml in FBBT containing 0.1% BSA (FBBT/BSA). Following three washes with FBBT, the wells were incubated with 0.05 ml of alkaline phosphatase labeled goat anti-rabbit IgG (TAGO) at a concentration of 2 μg/ml in FBBT/BSA, for 1 hour. The reaction was developed with 0.05 ml of […] p-nitrophenyl phosphate (Sigma phosphatase substrate tablets) in 10% diethanolamine, pH 9.8 containing 1 mM MgCl2.
2. […] Binding of ^4 F1.^5 F1 to fibrin coated microtiter plates was examined by ELISA as described above. Microtiter wells were coated with fibrin (50-1000 ng) and blocked, as described earlier, and incubated with the module pair ^4 F1.^5 F1 (500 ng/0.1 ml or 1000 ng/0.1 ml in FBB) for 1 hour, at room temperature.
Fibrin-binding activity was also assessed by an ELISA. Fn was reacted with fibrin-coated microtiter plates and bound Fn was determined by incubation with a polyclonal rabbit anti-Fn antiserum followed by alkaline phosphatase-labeled anti-rabbit Ig.

fibrin [4] = experiment: Rebinding of eluted 11 kDa fragment to fibrin column; format: binding, bovine
Description: Thus, although 100% of the 11 kDa peptide that was applied to the column could be eluted, only 40-50% of the protein rebound to a second fibrin column at 4° C., and only 20% bound at 37° C.
The 11 kDa peptide of fibronectin (or 25.9 kDa peptide) and genetically engineered and expressed proteins of fibronectin type I repeat modules are subjected to fibrin-SEPHAROSE™ chromatography as described above.

fibrin [5] = experiment: Fibrin-SEPHAROSE affinity chromatography (binding and elution); set-up: species or system bovine; conditions: temperature change vs denaturing conditions (6M urea or 50% ethylene glycol) for elution
Description: Bovine fibrinogen was cross-linked to CNBr-activated SEPHAROSE™ (5 mg/ml beads) according to the manufacturer's instructions. Coupled fibrinogen was subsequently converted to fibrin by incubation with human thrombin to a final concentration of 5 NIH units/ml and 100 K.I. (kallikrein inhibitory) units/ml of aprotinin (in 0.05M Tris-HCI buffer, pH 7.6, containing 0.1M NaCl and 0.01M EDTA) for three hours, at room temperature (Gold, et al. (1983) Biochemistry 22, 4113-4119).
1.0M NaCl in 0.05M tris buffer, pH 8.0.
The fibrin-binding activity of the proteolytically derived 25.9 kDa fragment of Fn was determined by its ability to bind to a fibrin affinity matrix. […] FBB was used to equilibrate and wash the column. Following warming of the column to 22° C., the column was washed with FBB until absorbance at 280 nm (A280) was less than 0.01, and bound protein eluted with 0.05M Tris-HCl, 0.5M NaCl, 6M urea buffer, pH 7.6.
The module (500 μg/1.0 ml) was incubated for 4 hours (while rotating) at 4° C. in the presence of 1.0 ml fibrin-SEPHAROSE™ (5 mg fibrin/ml SEPHAROSE™ beads) equilibrated in […] Tris-HCl, 0.1M NaCl buffer, pH 7.6.
The 11 KDa peptide (50 μg/0.206 ml) was radiolabeled using the IODO-BEAD method (Pierce Chemical). The peptide was added to one IODO-BEAD in the presence of 100 μCi ^125 I (17.4 Ci/mg, New England Nuclear) and incubated on ice for 10 minutes. The bead was removed and the free ^125 I removed by chromatography through a PD10 column containing SEPHADEX™ G-25 (Pharmacia). […] The radioiodinated 11 kDa fibrin-binding peptide (500 μg/1.5 ml) was combined with 1 ml of fibrin-SEPHAROSE™ (5 mg fibrin/ml beads) equilibrated with 50 mM Tris-HCl, 0.1M NaCl buffer, pH 7.6, and rotated for 4 hours, at 4° C. The mixture was poured onto a disposable column (0.6 cm×8.0) and the unbound protein washed through. The column was equilibrated to room temperature and washed with the equilibration buffer.

Substance: 11 kDa FBP: 11 kDa C-terminal proteolytic (subtilisin) fibrin-binding fragment of human plasma fibronectin, residues 2123-2232 of SEQ ID NO:1
- % of applied material bound to fibrinogen-SEPHAROSE column (fibrinogen): 4-5%
- % of bound iodinated 11 kDa reversibly displaced (fibrin [1]): 42%
- % ELUTED from fibrin-SEPHAROSE (fibrin [2]; agent 1.0M Arginine, listed as 11 kDa FIBRIN-BINDING FRAGMENT): 26%
- % ELUTED from fibrin-SEPHAROSE (fibrin [2]; agent 1.0M Arginine, listed as 11 kDa peptide): 25%
- % ELUTED from fibrin-SEPHAROSE (fibrin [2]; agent 1.0M KBr): 55-65%
- % ELUTED from fibrin-SEPHAROSE (fibrin [2]; agent 2.0M Urea): 32%
- % ELUTED from fibrin-SEPHAROSE (fibrin [2]; agent 4.0M Urea): 50-60%
- % ELUTED from fibrin-SEPHAROSE (fibrin [2]; agent 6.0M Urea): 100%
- % ELUTED from fibrin-SEPHAROSE (fibrin [2]; agent 50% ethylene glycol, pH 11.5): 77%
- amount bound relative to intact fibronectin on a mole-per-mole basis (fibrin [3]): 20 times
- amount giving maximum binding per 550 ng of fibrin (fibrin [3]): approximately 500 ng
- binding to fibrin-coated wells (fibrin [3]; ELISA, room temperature, 1 hr): bound to the fibrin-coated wells in a concentration dependent manner
- % Rebound to fibrin (fibrin [4]; 4° C., eluted with 1.0M KBr): 7-10%
- % Rebound to fibrin (fibrin [4]; 4° C., eluted with 2.0M Urea): 60%
- % Rebound to fibrin (fibrin [4]; 4° C., eluted with 4.0M Urea): 45-52%
- % Rebound to fibrin (fibrin [4]; 4° C., eluted with 6.0M Urea): 40-50%
- % Rebound to fibrin (fibrin [4]; 4° C., eluted with 6.0M Urea (step dialysis)): 40-50%
- % Rebound to fibrin (fibrin [4]; 4° C., eluted with ethylene glycol, listed as 11 kDa FRAGMENT): 80%
- % Rebound to fibrin (fibrin [4]; 4° C., eluted with ethylene glycol, listed as 11 kDa peptide): 60%
- % Rebound to fibrin (fibrin [4]; 37° C., eluted with 6.0M urea): 20%
- % Rebound to fibrin (fibrin [4]; 37° C., eluted with ethylene glycol): 49.5%
- relative affinity for fibrin (from elution conditions) (fibrin [5]): markedly higher
